Laboratory results reported in US20220281848A1, “PYRAZOLE-SUBSTITUTED PYRROLIDINONES AS HERBICIDES” (FMC Corporation, priority 2019, published 2022).

Columns and labels:
Type in all cases: in vivo
[1] = system: ivy-leaved morning glory (Ipomoea hederacea, IPOHE); test: Test A pre-emergence, ivy-leaved morning glory; conditions: after 13 d
In short: (§1)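 After sowing in pots and a single day of glasshouse cultivation, the soil was treated with an aqueous spray of the compound (acetone/water 50:50, 0.5% Tween 20) giving 15.625, 62.5 or 250 g/ha. Evaluation after 13 d used a scale where 0 meant no damage and 100 total damage.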

[2] = system: giant foxtail (Setaria faberi, SETFA); test: Test A pre-emergence, giant foxtail; conditions: after 13 d
In short: as §1

[3] = system: redroot pigweed (Amaranthus retroflexus, AMARE); test: Test A pre-emergence, redroot pigweed; conditions: after 13 d
In short: as §1

[4] = system: corn (Zea mays, ZEAMX); test: Test A pre-emergence, corn; conditions: after 13 d
In short: as §1

[5] = system: ivy-leaved morning glory (Ipomoea hederacea, IPOHE); test: Test A post-emergence, ivy-leaved morning glory; conditions: after 13 d
In short: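 Post-emergence spray at 8 d after sowing; doses 15.625, 62.5 or 250 g/ha in acetone/water 50:50 + 0.5% Tween 20. Glasshouse 24/16 °C, 14 h light, 65% RH, watered twice daily. Visual damage rating 0–100 at 13 d.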

[6] = system: wheat; test: Test D pre-emergence, wheat seed treated with a herbicide safener; conditions: 100=total damage, 0=no damage
Method: A formulation containing 50 g/L of the test chemical was prepared by dissolving the active ingredient in a mixture of organic solvents and emulsifier, details of which are provided in the table. This formulation was then mixed with a small, variable amount of acetone to aid dissolution, before addition of a 0.2% v/v aqueous solution of an adjuvant, as the aqueous diluent, to form an aqueous spray solution which contains a predetermined concentration of the active ingredient.
This aqueous spray solution was then sprayed onto plants including maize and wheat that had been seed treated with a herbicide safener, after one day's cultivation (for pre-emergence) or after about 12 days' cultivation (for post-emergence). The plants were grown from seeds sown in standard soil, placed in a glasshouse under controlled conditions (at 24/18° C. or 20/16° C., day/night; 16 h light; 65% humidity). After spray application the plants were then grown in a glasshouse under the same conditions and watered twice daily. After 15 d for post-emergence and 20 DAA for pre-emergence the test was evaluated (100=total damage to plant; 0=no damage to plant).

SMILES	damage to plant (100=total damage; 0=no damage) IPOHE ([1]; Pre-Emergence at 15.625 g/ha)	damage to plant (100=total damage; 0=no damage) IPOHE ([1]; Pre-Emergence at 62.5 g/ha)	damage to plant (100=total damage; 0=no damage) IPOHE ([1]; Pre-Emergence at 250 g/ha)	damage to plant (100=total damage; 0=no damage) SETFA ([2]; Pre-Emergence at 15.625 g/ha)	damage to plant (100=total damage; 0=no damage) SETFA ([2]; Pre-Emergence at 62.5 g/ha)	damage to plant (100=total damage; 0=no damage) SETFA ([2]; Pre-Emergence at 250 g/ha)	damage to plant (100=total damage; 0=no damage) AMARE ([3]; Pre-Emergence at 15.625 g/ha)	damage to plant (100=total damage; 0=no damage) AMARE ([3]; Pre-Emergence at 62.5 g/ha)	damage to plant (100=total damage; 0=no damage) AMARE ([3]; Pre-Emergence at 250 g/ha)	damage to plant (100=total damage; 0=no damage) ZEAMX ([4]; Pre-Emergence at 15.625 g/ha)	damage to plant (100=total damage; 0=no damage) ZEAMX ([4]; Pre-Emergence at 62.5 g/ha)	damage to plant (100=total damage; 0=no damage) ZEAMX ([4]; Pre-Emergence at 250 g/ha)	damage to plant (100=total damage; 0=no damage) IPOHE ([5]; Post-Emergence at 15.625 g/ha)	damage to plant (100=total damage; 0=no damage) IPOHE ([5]; Post-Emergence at 62.5 g/ha)	damage to plant (100=total damage; 0=no damage) IPOHE ([5]; Post-Emergence at 250 g/ha)	damage to plant, TRZAW ([6]; rate 60, 20 DAA)	damage to plant, TRZAW ([6]; rate 130, 20 DAA)	damage to plant, TRZAW ([6]; rate 250, 20 DAA)	damage to plant, TRZAW ([6]; rate 500, 20 DAA)	damage to plant, TRZAW ([6]; rate 15, 20 DAA)	further results
CN1CC(c2cc(Cl)n(C)n2)C(C(=O)Nc2ccc(F)c(F)c2F)C1=O (racemic) [Compound 31]	0	0	10	40	80	80	0	0	0	0	10	20	20	30	40	0	0	0	0		TRZAW damage rating ([6]; Rates 15, 20 DAA): 0; TRZAW damage rating ([6]; Rates 30, 20 DAA): 0
CN1CC(c2cc(C(F)(F)F)n(C)n2)C(C(=O)Nc2ccc(F)cc2F)C1=O (racemic) [Compound 6]	0	0	10	80	90	90	20	20	50	10	20	60	40	20	10	0	0	0	10	0	damage to plant, TRZAW ([6]; rate 30, 20 DAA): 0
CCn1nc([C@H]2CN(C)C(=O)[C@@H]2C(=O)Nc2cccc(F)c2F)c2cc(F)ccc21 [Compound 8]	20	20	20	80	90	90	0	0	0	20	40	70	20	0	30	0	0	0	0	0	damage to plant, TRZAW ([6]; rate 30, 20 DAA): 0
CN1CC(c2cc(C(F)(F)F)n(C)n2)C(C(=O)Nc2ccc(F)nc2F)C1=O (racemic) [Compound 22]	0	0	0	80	90	90	0	10	20	0	20	40	0	10	30	0	0	0	10	0	damage to plant, TRZAW ([6]; rate 30, 20 DAA): 0
CN1CC(c2cc(C(F)(F)F)n(C)n2)C(C(=O)Nc2cccc(F)n2)C1=O (racemic) [Compound 24]	0	0	40	70	90	90	0	0	0	0	30	80	10	20	50	0	0	0	10	0	damage to plant, TRZAW ([6]; rate 30, 20 DAA): 0
CN1CC(c2cc(C(F)(F)F)n(C)n2)C(C(=O)Nc2ccccc2F)C1=O (racemic) [Compound 9]	50	0	0	70	90	90	0	0	20	50	0	20	10	0	0	0	0	0	0	0	damage to plant, TRZAW ([6]; rate 30, 20 DAA): 0
COc1c(F)cccc1NC(=O)C1C(=O)N(C)CC1c1cc(C(F)(F)F)n(C)n1 (racemic) [Compound 18]	10	10	20	90	90	90	0	0	0	30	60	80	10	20	50	0	0	20	30	0	damage to plant, TRZAW ([6]; rate 30, 20 DAA): 0
CN1C[C@H](c2nn(C)c3c(F)cccc23)[C@@H](C(=O)Nc2cccc(F)c2F)C1=O [Compound 2]	0	0	0	90	90	90	10	0	0	0	0	10	0	0	0	0	10	20	80	0	damage to plant, TRZAW ([6]; rate 30, 20 DAA): 0
